Experimental data from US20260265195A1, “SARM1 MODULATORS, PREPARATIONS, AND USES THEREOF” (SIRONAX LTD, priority 2022, published 2026).

Biological target: T1, SARM1 (50-724) (Homo sapiens, UniProt Q6SZW1)
T1 construct: Purified SARM1 (50-724) with a final concentration of 2 nM
T1 sequence (Q6SZW1 50-724): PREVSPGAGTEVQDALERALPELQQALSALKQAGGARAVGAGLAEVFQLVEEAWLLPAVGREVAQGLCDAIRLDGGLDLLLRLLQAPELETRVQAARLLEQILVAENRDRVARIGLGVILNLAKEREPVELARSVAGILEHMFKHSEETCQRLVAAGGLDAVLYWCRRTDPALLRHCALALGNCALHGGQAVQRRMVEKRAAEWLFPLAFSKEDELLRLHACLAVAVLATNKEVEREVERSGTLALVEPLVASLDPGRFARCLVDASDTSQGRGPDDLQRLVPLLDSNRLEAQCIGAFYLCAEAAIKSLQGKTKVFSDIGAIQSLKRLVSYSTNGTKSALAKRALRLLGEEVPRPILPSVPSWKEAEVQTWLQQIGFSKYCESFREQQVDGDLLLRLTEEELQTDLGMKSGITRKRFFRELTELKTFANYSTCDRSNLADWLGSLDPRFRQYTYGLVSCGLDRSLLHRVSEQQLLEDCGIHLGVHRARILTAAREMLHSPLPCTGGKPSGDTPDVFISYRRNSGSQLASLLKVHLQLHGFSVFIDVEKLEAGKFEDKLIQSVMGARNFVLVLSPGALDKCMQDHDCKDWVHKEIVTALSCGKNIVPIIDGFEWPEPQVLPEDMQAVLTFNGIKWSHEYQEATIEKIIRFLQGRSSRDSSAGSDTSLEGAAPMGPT
Experiment: SARM1 (50-724) enzymatic assay (NMN-activated NAD+ hydrolysis, LC-MS/MS readout)
Format: biochemical
Details: purified SARM1 (50-724) 2 nM, 200 μM NMN activator, 100 μM NAD+ substrate, 1 h at room temperature, read-out: IC50 (SARM1 inhibitory activity)
Experimental: Example II. SARM1 (50-724) Enzymatic Assay
An enzymatic assay was performed in a 384-well plate using Dulbecco's phosphate-buffered saline (PBS) as the reaction buffer. Purified SARM1 (50-724) with a final concentration of 2 nM was pre-incubated with a test compound at 1% DMSO final assay concentration for 15 min at room temperature. The reaction was initiated by adding a mixture of 200 μM nicotinamide mononucleotide (NMN) as activator and 100 μM NAD^+ as substrate. After 1 h of incubation at room temperature, the reaction was terminated with 10 times volume of 70% acetonitrile, then centrifuged at 3800 rpm for 10 min. The samples were analyzed using LC-MS/MS after diluted to a proper concentration by 10 mM ammonium acetate (pH 9.75).
ND means “not determined.”

IC50 | SMILES
≥ 1 µM | CN(C(=O)C1Cc2ccccc2N1)C1CCCC1 (centres unmarked) [Compound 55, N-cyclopentyl-N-methylindoline-2-carboxamide]
≤ 0.1 µM | O=C(c1nc2cc(C(F)(F)F)ccc2[nH]1)N(CC1COC1)c1cccc(Cl)c1Cl [Compound 105, N-(2,3-dichlorophenyl)-N-(oxetan-3-ylmethyl)-5-(trifluoromethyl)-1H-benzo[d]imidazole-2-carboxamide]
≤ 0.1 µM | Cc1c(Cl)cccc1N(C)C(=O)c1nc2cc(C(F)(F)F)ccc2[nH]1 [Compound 118, N-(3-chloro-2-methylphenyl)-N-methyl-5-(trifluoromethyl)-1H-benzo[d]imidazole-2-carboxamide]
0.501 to 1 µM | Cc1ccc2[nH]c(C(=O)N(C)c3c(F)cccc3F)c(CO)c2c1 [Compound 2, N-(2,6-difluorophenyl)-3-(hydroxymethyl)-N,5-dimethyl-1H-indole-2-carboxamide]
≤ 0.1 µM | CC(c1cn[nH]c1)c1ccc2[nH]c(C(=O)N(CCO)c3cccc(Cl)c3Cl)nc2c1 (racemic) [Compound 189]
≥ 1 µM | CN(C(=O)c1[nH]ncc1CO)C1CCCC1 [Compound 33, N-cyclopentyl-4-(hydroxymethyl)-N-methyl-1H-pyrazole-5-carboxamide]
≤ 0.1 µM | Cc1ccc(Cl)c(N(C)C(=O)c2nc3cc(C(F)(F)F)ccc3[nH]2)c1Cl [Compound 152, N-(2,6-dichloro-3-methylphenyl)-N-methyl-5-(trifluoromethyl)-1H-benzo[d]imidazole-2-carboxamide]
0.101 to 0.5 µM | Cc1ccc2[nH]c(C(=O)N(CCO)c3cccc(Cl)c3Cl)nc2c1-c1cc[nH]c(=O)c1 [Compound 164]
0.101 to 0.5 µM | Cc1ccc2[nH]c(C(=O)N(C)C3CCCCC3)c(CNc3ccccn3)c2c1 [Compound 91, N-cyclohexyl-N,5-dimethyl-3-((pyridin-2-ylamino)methyl)-1H-indole-2-carboxamide]
≤ 0.1 µM | O=C(c1nc2cc(C(F)(F)F)cc(F)c2[nH]1)N(CC(F)(F)CO)c1cccc(F)c1Cl [Compound 211]
≥ 1 µM | COc1ccccc1N(C)C(=O)c1[nH]c2ccc(C)cc2c1CO [Compound 13, 3-(hydroxymethyl)-N-(2-methoxyphenyl)-N,5-dimethyl-1H-indole-2-carboxamide]
≤ 0.1 µM | CC(C)(O)c1ccc2[nH]c(C(=O)N(CCO)c3cccc(Cl)c3Cl)nc2c1 [Compound 150, N-(2,3-dichlorophenyl)-N-(2-hydroxyethyl)-5-(2-hydroxypropan-2-yl)-1H-benzo[d]imidazole-2-carboxamide]
0.101 to 0.5 µM | Cc1ccc2[nH]c(C(=O)N(C)C3CCCC3)c(CNc3nc(C(N)=O)cs3)c2c1 [Compound 73, 2-(((2-(cyclopentyl(methyl)carbamoyl)-5-methyl-1H-indol-3-yl)methyl)amino)thiazole-4-carboxamide]
≤ 0.1 µM | Cc1ccc2[nH]c(C(=O)N(C)C3CCCC3)c(CNc3ncco3)c2c1 [Compound 80, N-cyclopentyl-N,5-dimethyl-3-((oxazol-2-ylamino)methyl)-1H-indole-2-carboxamide]
≤ 0.1 µM | Cc1ccc2[nH]c(C(=O)N(C)c3cccc(Cl)c3Cl)c(CNc3nc(C(N)=O)c(C(C)C)s3)c2c1 [Compound 74, 2-(((2-((2,3-dichlorophenyl)(methyl)carbamoyl)-5-methyl-1H-indol-3-yl)methyl)amino)-5-isopropylthiazole-4-carboxamide]
≥ 1 µM | CN(C(=O)c1nc2ccccc2o1)C1CCCC1 [Compound 56, N-cyclopentyl-N-methylbenzo[d]oxazole-2-carboxamide]
0.101 to 0.5 µM | O=C(c1nc2cc(C(F)(F)F)ccc2[nH]1)N(CCN1CCC1)c1cccc(Cl)c1Cl [Compound 149, N-(2-(azetidin-1-yl)ethyl)-N-(2,3-dichlorophenyl)-6-(trifluoromethyl)-1H-benzo[d]imidazole-2-carboxamide]
